Test results taken from the NIST ThermoML archive (doi:10.1021/je100423n).

Tests used:
[1] = Molar enthalpy of transition or fusion; settings: Crystal; DSC
[2] = molar heat capacity at constant pressure; settings: 101.33 kPa, Crystal
[3] = Crystal; DTA

Cn1cc[n+](CCCS(=O)(=O)[O-])c1 [3-(1-methyl-1H-imidazolium-3-yl)propane-1-sulfonate]
Settings	Molar enthalpy of transition or fusion [kJ/mol]	Normal melting temperature [°C]
[1]	28.4	–
[3]	–	217.30

[2]
Settings	molar heat capacity at constant pressure [J/K/mol]
79.8 K	86.51
81.82 K	88.12
83.72 K	89.95
85.64 K	89.73
87.56 K	93.2
89.49 K	95.76
91.4 K	97.65
93.32 K	99.15
95.24 K	102.59
97.17 K	103.14
99.12 K	102.97
101.85 K	103.15
104.55 K	104.71
106.45 K	105.28
108.39 K	105.7
110.33 K	111.76
112.29 K	111.65
114.18 K	111.92
116.13 K	115.43
118.1 K	116.28
120.05 K	114.78
121.97 K	115.61
123.88 K	119.92
125.82 K	122.24
127.79 K	123.43
129.74 K	125.12
131.67 K	124.91
133.59 K	127.13
135.53 K	131.14
137.52 K	130.24
139.48 K	129.74
141.43 K	131.92
143.37 K	134.51
145.33 K	134.71
147.34 K	135.23
149.32 K	136.3
151.86 K	137.15
154.34 K	136.69
156.25 K	139.22
158.24 K	141.2
160.2 K	143.21
162.16 K	143.46
164.1 K	142.79
166.03 K	143.55
167.95 K	145.47
169.86 K	147.4
171.84 K	148.97
173.85 K	149.72
175.86 K	149.26
177.86 K	149.24
179.85 K	152.16
181.84 K	150.39
183.8 K	154.14
185.77 K	156.95
187.72 K	158.74
189.66 K	159.79
191.59 K	160.39
193.51 K	162.15
195.43 K	163.86
197.4 K	164.54
199.41 K	165.47
201.87 K	167.03
204.26 K	168.03
206.21 K	169.73
208.23 K	170.72
210.24 K	171.01
212.24 K	172.7
214.24 K	173.59
216.23 K	174.98
218.22 K	175.65
220.2 K	176.48
222.16 K	177.33
224.13 K	178.37
226.09 K	179.05
228.04 K	180.76
229.98 K	181.37
231.89 K	182.01
233.91 K	183.89
235.92 K	184.74
237.85 K	185.76
239.79 K	186.01
242.05 K	187.95
244.34 K	187.83
246.29 K	188.35
248.25 K	190.3
250.19 K	193.13
252.14 K	194.47
254.07 K	195.68
255.99 K	196.3
257.92 K	197.35
259.83 K	198.68
261.74 K	199.57
263.64 K	200.05
265.55 K	201.61
267.43 K	202.34
269.32 K	203.12
271.3 K	205.52
273.27 K	206.92
275.24 K	208.19
277.3 K	209.38
279.36 K	210.92
281.42 K	212.37
283.48 K	214.25
285.52 K	216.3
287.56 K	218.37
289.55 K	220.99
293.53 K	222.83
295.51 K	223.55
297.5 K	224.52
299.48 K	225.32
301.46 K	225.86
303.43 K	227.02
305.4 K	226.03
307.36 K	230.37
309.31 K	235.18
311.27 K	235.45
313.22 K	236.03
315.16 K	234.76
317.1 K	236.03
319.02 K	238.01
320.95 K	239.81
322.87 K	240.52
324.78 K	243.51
326.69 K	246.23
328.59 K	244.95
330.48 K	246.48
332.37 K	249.83
334.35 K	249.15
336.32 K	251.01
338.27 K	250.4
340.28 K	254.4
342.23 K	256.8
344.09 K	255.82
345.86 K	260.16
347.69 K	257.32
349.6 K	262.66
351.56 K	261.97
353.54 K	259.52
355.49 K	263.89
357.41 K	266.15
359.38 K	268.15
361.39 K	270.9
363.37 K	269.56
365.32 K	267.19
367.26 K	270.08
369.16 K	275.79
371.1 K	275.4
373.06 K	275.42
375 K	277.14
376.96 K	279.35
378.97 K	280.38
380.96 K	281.24
383.24 K	283.27
385.55 K	285.76
387.47 K	284.6
389.43 K	285.05
391.54 K	286.7
393.53 K	288.42
395.46 K	290.84
